Structures can show the parent of a compound that is named as a salt.
Columns and labels:
Assay type in all cases: biochemical
human α-thrombin = target: T1, human α-thrombin (Homo sapiens, UniProt P00734); experiment: In vitro inhibition of purified enzymes: thrombin, hydrolysis of N-succinyl-Ala-Ala-Pro-Arg-p-nitroanilide; details: 37° C., pH 7.5
T1 construct: Purified human a-thrombin was diluted into assay buffer; purchased Enzyme Research Laboratories (South Bend)
Excerpt: (§1) Reagents: All buffer salts were obtained from Sigma Chemical Company (St. Louis, Mo.), and were of the highest purity available. The enzyme substrates, N-benzoyl-Phe-Val-Arg-p-nitroaniide (Sigma B7632) N-benzoyl-Ile-Glu-Gly-Arg-p-nitroanilide hydrochloride (Sigma B2291), N-p-Tosyl-Gly-Pro-Lys-p-nitroanilide (Sigma T6140), N-succinyl-Ala-Ala-Pro-Phe-p-nitroanilide (Sigma S7388) and N-CBZ-Val-Gly-Arg-p-nitroanilide (Sigma C7271) were obtained from Sigma.
(§2) Human α-thrombin, human factor Xa and human plasmin were obtained from Enzyme Research Laboratories (South Bend, Id.). Bovine α-chymotrypsin (Sigma C4129), bovine trypsin (Sigma T8642) and human kidney cell urokinase (Sigma U5004) were obtained from Sigma. Human leukocyte elastase was obtained from Elastin Products (Pacific, Mo.).
Ki Determinations: All assays are based on the ability of the test compound to inhibit the enzyme catalyzed hydrolysis of a peptide p-nitroanilide substrate. […] The final concentrations for each of the substrates is listed below. In general, substrate concentrations are lower than the experimentally determined value for Km. Test compounds are prepared as a 1.0 mg/ml solution in DMSO. Dilutions are prepared in DMSO yielding 8 final concentrations encompassing a 200 fold concentration range. Enzyme solutions are prepared at the concentrations listed below in assay buffer.
(§3) Reactions were initiated by the addition of a […] aliquot of enzyme and the absorbance increase at 405 nm is recorded for 15 minutes. Data corresponding to less than 10% of the total substrate hydrolysis were used in the calculations. The ratio of the velocity (rate of change in absorbance as a function of time) for a sample containing no test compound is divided by the velocity of a sample containing test compound, and is plotted as a function of test compound concentration. The data are fit to a linear regression, and the value of the slope of the line calculated. The inverse of the slope is the experimentally determined Ki value.
Thrombin: Thrombin activity was assessed as the ability to hydrolyze the substrate N-succinyl-Ala-Ala-Pro-Arg-p-nitroanilide. […] Final reagent concentrations were: [thrombin]=0.5 nM, [substrate N-succinyl-Ala-Ala-Pro-Arg-p-nitroanilide]=32 mM.

human factor Xa = target: T2, human factor Xa (Homo sapiens, UniProt P00742); experiment: In vitro inhibition of purified enzymes: Factor X [FXa], hydrolysis of N-benzoyl-Ile-Glu-Gly-Arg-p-nitroanilide; details: 37° C., pH 7.5
T2 construct: purchased Enzyme Research Laboratories (South Bend)
T2 sequence (P00742 235-488 limits assumed): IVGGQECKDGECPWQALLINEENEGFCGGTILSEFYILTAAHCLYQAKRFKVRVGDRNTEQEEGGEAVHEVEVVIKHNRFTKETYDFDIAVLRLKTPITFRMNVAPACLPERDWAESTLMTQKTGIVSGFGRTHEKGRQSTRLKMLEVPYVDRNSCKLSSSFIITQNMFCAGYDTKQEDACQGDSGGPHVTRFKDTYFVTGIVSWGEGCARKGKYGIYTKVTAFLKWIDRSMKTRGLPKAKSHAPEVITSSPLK
T2 sequence (P00742 41-179 partner limits assumed): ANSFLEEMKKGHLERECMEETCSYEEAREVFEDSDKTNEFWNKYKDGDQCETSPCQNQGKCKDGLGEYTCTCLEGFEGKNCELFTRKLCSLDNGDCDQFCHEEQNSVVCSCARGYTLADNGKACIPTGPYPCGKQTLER
Excerpt: as §1, with “Sigma. N-succinyl-Ala-Ala-Pro-Arg-p-nitroanilide (BACHEM L-1720) and N-succinyl-Ala-Ala-Pro-Val-p-nitroanilide (BACHEM L-1770) were obtained from BACHEM (King of Prussia, Pa.).” for “Sigma.”
as §2
(§4) Ki Determinations: All assays are based on the ability of the test compound to inhibit the enzyme catalyzed hydrolysis of a peptide p-nitroanilide substrate. In atypical Ki determination, substrate is prepared in DMSO, and diluted into an assay buffer consisting of 50 mM HEPES, 200 mM NaCl, pH 7.5. The final concentrations for each of the substrates is listed below. In general, substrate concentrations are lower than the experimentally determined value for Km. Test compounds are prepared as a 1.0 mg/ml solution in DMSO. Dilutions are prepared in DMSO yielding 8 final concentrations encompassing a 200 fold concentration range. Enzyme solutions are prepared at the concentrations listed below in assay buffer.
as §3, with “In a typical Ki determination, into each well of a 96 well plate is pipetted […] of substrate solution, […] of test compound solution, and the plate allowed to thermally equilibrate at 37° C. in a Molecular Devices plate reader for>15 minutes. Reactions” for “Reactions”
Factor X [FXa]: FXa activity was assessed as the ability to hydrolyze the substrate N-benzoyl-Ile-Glu-Gly-Arg-p-nitroanilide hydrochloride. […] Final DMSO concentration was 4.3%. Purified activated human Factor X was diluted into assay buffer to a concentration of 300 nM. Final reagent concentrations were: [FXa]=10 nM, [N-benzoyl-Ile-Glu-Gly-Arg-p-nitroanilide hydrochloride]=51 mM.

bovine α-chymotrypsin = target: T3, bovine α-chymotrypsin (Bos taurus, UniProt P00766); experiment: In vitro inhibition of purified enzymes: chymotrypsin, hydrolysis of N-succinyl-Ala-Ala-Pro-Phe-p-nitroanilide; details: read-out: % Inhibition Chymo.
T3 construct: Bovine α-chymotrypsin (Sigma C4129); purchased Sigma C4129
Excerpt: as §1, with “Sigma. N-succinyl-Ala-Ala-Pro-Arg-p-nitroanilide (BACHEM L-1720) and N-succinyl-Ala-Ala-Pro-Val-p-nitroanilide (BACHEM L-1770) were obtained from BACHEM (King of Prussia, Pa.).” for “Sigma.”
as §2, §4
as §3, with “In a typical Ki determination, into each well of a 96 well plate is pipetted […] of substrate solution, […] of test compound solution, and the plate allowed to thermally equilibrate at 37° C. in a Molecular Devices plate reader for>15 minutes. Reactions” for “Reactions”
Chymotrypsin: Chymotrypsin activity was assessed as the ability to hydrolyze N-succinyl-Ala-Ala-Pro-Phe-p-nitroanilide. […] Final DMSO concentration was 4.3%. Purified bovine chymotrypsin was diluted into assay buffer to a concentration of 81 nM. Final reagent concentrations were: [Chymotrypsin]=2.7 nM, [N-succinyl-Ala-Ala-Pro-Phe-p-nitroanilide]=14 mM.

human leukocyte elastase = target: T4, human leukocyte elastase (Homo sapiens, UniProt P08246); experiment: In vitro inhibition of purified enzymes: elastase, hydrolysis of N-succinyl-Ala-Ala-Pro-Val-p-nitroanilide
T4 construct: purchased Elastin Products (Pacific, Mo.)
T4 sequence (P08246 30-247 limits assumed): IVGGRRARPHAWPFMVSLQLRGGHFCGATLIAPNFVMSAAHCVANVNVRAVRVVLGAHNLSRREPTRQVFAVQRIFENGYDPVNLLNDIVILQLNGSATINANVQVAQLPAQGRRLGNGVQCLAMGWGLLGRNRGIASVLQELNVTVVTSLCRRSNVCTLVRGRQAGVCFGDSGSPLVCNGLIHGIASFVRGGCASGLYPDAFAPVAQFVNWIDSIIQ
Excerpt: as §1, with “Sigma. N-succinyl-Ala-Ala-Pro-Arg-p-nitroanilide (BACHEM L-1720) and N-succinyl-Ala-Ala-Pro-Val-p-nitroanilide (BACHEM L-1770) were obtained from BACHEM (King of Prussia, Pa.).” for “Sigma.”
as §2, §4
as §3, with “In a typical Ki determination, into each well of a 96 well plate is pipetted […] of substrate solution, […] of test compound solution, and the plate allowed to thermally equilibrate at 37° C. in a Molecular Devices plate reader for>15 minutes. Reactions” for “Reactions”
Elastase: Elastase activity was assessed as the ability to hydrolyze N-succinyl-Ala-Ala-Pro-Val-p-nitroanilide. Substrate solutions were prepared at a concentration of 19 mM (19 mM<<Km=89 mM) in assay buffer. Final DMSO concentration was 4.3%. Purified human leukocyte elastase was diluted into assay buffer to a concentration of 750 nM. Final reagent concentrations were: [Elastase]=25 nM, [N-succinyl-Ala-Ala-Pro-Val-p-nitroanilide]=19 mM.

human plasmin = target: T5, human plasmin (Homo sapiens, UniProt P00747); experiment: In vitro inhibition of purified enzymes: plasmin, hydrolysis of N-p-Tosyl-Gly-Pro-Lys-p-nitroanilide
T5 construct: Purified human plasmin was diluted into assay buffer; purchased Enzyme Research Laboratories (South Bend)
T5 sequence (P00747 581-810 limits assumed): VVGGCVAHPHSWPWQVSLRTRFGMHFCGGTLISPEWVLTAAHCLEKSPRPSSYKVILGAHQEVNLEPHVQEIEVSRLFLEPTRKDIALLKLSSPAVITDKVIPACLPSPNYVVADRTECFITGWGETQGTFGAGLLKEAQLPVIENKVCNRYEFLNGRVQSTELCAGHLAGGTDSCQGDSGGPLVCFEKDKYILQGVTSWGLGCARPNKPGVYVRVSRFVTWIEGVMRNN
T5 sequence (P00747 97-580 partner limits assumed): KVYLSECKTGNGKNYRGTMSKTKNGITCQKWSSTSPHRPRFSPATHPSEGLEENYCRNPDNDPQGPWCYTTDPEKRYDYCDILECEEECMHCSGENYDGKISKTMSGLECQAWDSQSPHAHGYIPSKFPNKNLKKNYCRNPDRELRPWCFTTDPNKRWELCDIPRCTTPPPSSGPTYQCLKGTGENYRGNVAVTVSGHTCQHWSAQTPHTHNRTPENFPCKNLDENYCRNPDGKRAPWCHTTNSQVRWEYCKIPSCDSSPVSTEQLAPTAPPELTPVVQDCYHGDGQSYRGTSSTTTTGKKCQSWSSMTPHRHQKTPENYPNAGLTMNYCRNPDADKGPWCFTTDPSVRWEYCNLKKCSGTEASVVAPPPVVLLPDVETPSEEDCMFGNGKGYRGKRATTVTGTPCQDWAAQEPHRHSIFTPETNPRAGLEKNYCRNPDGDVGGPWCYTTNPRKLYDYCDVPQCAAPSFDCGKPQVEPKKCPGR
Excerpt: as §1, with “Sigma. N-succinyl-Ala-Ala-Pro-Arg-p-nitroanilide (BACHEM L-1720) and N-succinyl-Ala-Ala-Pro-Val-p-nitroanilide (BACHEM L-1770) were obtained from BACHEM (King of Prussia, Pa.).” for “Sigma.”
as §2, §4
as §3, with “In a typical Ki determination, into each well of a 96 well plate is pipetted […] of substrate solution, […] of test compound solution, and the plate allowed to thermally equilibrate at 37° C. in a Molecular Devices plate reader for>15 minutes. Reactions” for “Reactions”
Plasmin: Plasmin activity was assessed as the ability to hydrolyze the N-p-Tosyl-Gly-Pro-Lys-p-nitroanilide. Substrate solutions were prepared at a concentration of 37 mM (37 mM<<Km=243 mM) in assay buffer. Final DMSO concentration was 4.3%. Purified human plasmin was diluted into assay buffer to a concentration of 240 nM. Final reagent concentrations were: [Plasmin]=8 nM, [N-p-Tosyl-Gly-Pro-Lys-p-nitroanilide]=37 mM.

bovine trypsin = target: T6, bovine trypsin (Bos taurus, UniProt P00760); experiment: In vitro inhibition of purified enzymes: trypsin, hydrolysis of N-benzoyl-Phe-Val-Arg-p-nitroanilide
T6 construct: Purified bovine trypsin was diluted into assay buffer; purchased Sigma T8642
T6 sequence (P00760 24-246): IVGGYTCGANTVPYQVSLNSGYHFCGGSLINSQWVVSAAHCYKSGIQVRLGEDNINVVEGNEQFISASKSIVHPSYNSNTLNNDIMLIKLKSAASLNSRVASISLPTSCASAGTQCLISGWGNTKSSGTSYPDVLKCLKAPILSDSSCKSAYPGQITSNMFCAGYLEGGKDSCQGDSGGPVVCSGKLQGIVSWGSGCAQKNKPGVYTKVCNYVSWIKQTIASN
Excerpt: as §1, with “Sigma. N-succinyl-Ala-Ala-Pro-Arg-p-nitroanilide (BACHEM L-1720) and N-succinyl-Ala-Ala-Pro-Val-p-nitroanilide (BACHEM L-1770) were obtained from BACHEM (King of Prussia, Pa.).” for “Sigma.”
as §2, §4
as §3, with “In a typical Ki determination, into each well of a 96 well plate is pipetted […] of substrate solution, […] of test compound solution, and the plate allowed to thermally equilibrate at 37° C. in a Molecular Devices plate reader for>15 minutes. Reactions” for “Reactions”
Trypsin: Trypsin activity was assessed as the ability to hydrolyze N-benzoyl-Phe-Val-Arg-p-nitroanilide. […] Final DMSO concentration was 4.3%. Purified bovine trypsin was diluted into assay buffer to a concentration of 120 nM. Final reagent concentrations were: [Trypsin]=4 nM, [N-benzoyl-Phe-Val-Arg-p-nitroanilide]=13 mM.

Cc1ccc(NS(=O)(=O)c2ccccc2Cl)c(=O)n1CC(=O)NCCONC(=N)N [Example 30, 3-(2-Chlorophenylsulfonyl)amino-6-methyl-1-[(2-guanidinooxyethyl)aminocarbonylmethyl]-2-pyridinone trifluoroacetate]
Ki (human α-thrombin): 61 nM
Ki (human factor Xa): 7600 nM
inhibition at 23.5 µM (bovine α-chymotrypsin; at 23,500 nM): 0%
inhibition at 23.5 µM (human leukocyte elastase; at 23,500 nM): 0%
inhibition at 23.5 µM (human plasmin; at 23,500 nM): 0%
inhibition at 23.5 µM (bovine trypsin; at 23,500 nM): 0%

Cc1ccc(NS(=O)(=O)c2ccc(I)cc2)c(=O)n1CC(=O)NCCONC(=N)N [Example 38, 3-(4-Iodophenylsulfonyl)amino-6-methyl-1-[(2-guanidinooxyethyl)aminocarbonylmethyl]-2-pyridinone trifluoroacetate]
Ki (human α-thrombin): 51 nM
Ki (human factor Xa): 420 nM
inhibition at 20 µM (bovine α-chymotrypsin; at 20,000 nM): 0%
inhibition at 20 µM (human leukocyte elastase; at 20,000 nM): 0%
inhibition at 20 µM (human plasmin; at 20,000 nM): 0%
inhibition at 20 µM (bovine trypsin; at 20,000 nM): 0%

Source: patent US6350764B2, “Heteroaryl aminoguanidines and alkoxyguanidines and their use as protease inhibitors” (3-Dimensional Pharmaceuticals, Inc., priority 1997, dated 2002)
